Kd and ΔTm data for 4 compounds are collected here from ChEMBL document CHEMBL3286256 (J Med Chem, 2014).

For assay [1], the target named is T1, Retinal rod rhodopsin-sensitive cGMP 3',5'-cyclic phosphodiesterase subunit delta (Homo sapiens, UniProt O43924). Put plainly: Binding affinity to His6-tagged PDE-delta (unknown origin) measured every 3 mins by fluorescence polarization assay. (In fluorescence polarisation assays a small probe gives low polarisation when free and higher when bound to something large.)

The target of assay [2] is T1, Retinal rod rhodopsin-sensitive cGMP 3',5'-cyclic phosphodiesterase subunit delta.
Description: Binding affinity to PDE-delta (unknown origin) assessed as shift in melting temperature

T1 sequence (O43924 whole entry): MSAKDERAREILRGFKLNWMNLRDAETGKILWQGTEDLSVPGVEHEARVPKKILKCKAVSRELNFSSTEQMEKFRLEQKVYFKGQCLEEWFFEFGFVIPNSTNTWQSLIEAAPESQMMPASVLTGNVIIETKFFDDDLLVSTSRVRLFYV

A word on the Kd: it is the concentration at which binding is half-saturated. Read a high Kd as a looser complex. The term ΔTm denotes the shift of the melting midpoint relative to a reference. With `CC(C)(C)OC(=O)N1CCC(C(COc2ccc(-c3nc4ccccc4n3Cc3ccccc3)cc2)n2c(-c3ccccc3)nc3ccccc32)CC1` (stereo not given), the Kd in assay [1] is over 2000 nM. Besides, the ΔTm in assay [2] worked out at 7.2 °C.

For the compound `CC(C)c1nc(N(C)S(C)(=O)=O)nc(-c2ccc(F)cc2)c1/C=C/[C@@H](O)C[C@@H](O)CC(=O)O` [ROSUVASTATIN], the Kd in assay [1] was found to be 1250 nM. This lies in the single-digit micromolar range.

In the case of `c1ccc(Cn2c(-c3ccc(OCC(C4CCNCC4)n4c(-c5ccccc5)nc5ccccc54)cc3)nc3ccccc32)cc1` (stereo not given), in assay [2], the ΔTm stood at 20.5 °C.

With `C=CC(=O)N1CCC(c2nc3ccccc3n2Cc2ccccc2)CC1`, in assay [1], the Kd is over 1000 nM.
